Read-outs that look alike come from different tables or passages of the source.
Test system: primary rat mixed cortical cells
Assay: In vitro myelination assay (MBP positive myelin strands, fold myelin pixels above background)
Type: cell-based
Settings: Rattus norvegicus; for fold induction at 1 µM: 1.0 μM compound; for fold induction at 10 µM: 10.0 μM compound
Procedure, shortened: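 P1 rat cortical cells (neurons, OPCs, oligodendrocytes, astrocytes, microglia) were cultured 14 days at 37 °C with compound, with half-medium changes containing 1× compound on days 6 and 10. Fixed cells were immunostained for MBP and imaged at 10×. Total MBP myelin pixels per well were expressed as fold above no-compound baseline at 1.0 μM and 10.0 μM.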

[1] = read-out: Fold myelin pixels above background relative to baseline of no added compound
[2] = relative to baseline of no added compound, read-out: Fold myelin pixels above background
[3] = relative to baseline of no added compound, read-out: Fold myelin pixels above background, 1.0 μM
[4] = relative to baseline of no added compound, read-out: Fold myelin pixels above background, 10.0 μM

Compound | fold induction at 1 µM [2] | fold induction at 10 µM [2] | fold induction at 1 µM [3] | fold induction at 10 µM [4] | other results
Cc1cc(Nc2ncn(-c3ccc(F)c(F)c3)n2)cc(N2CC3(C2)CN(C(C)C)C3)c1 [Compound 977, 1-(3,4-difluorophenyl)-N-[3-(2-isopropyl-2,6-diazaspiro[3.3]heptan-6-yl)-5-methyl-phenyl]-1,2,4-triazol-3-amine] |  |  |  |  | fold induction at 1 µM [1]: 1 to 10; fold induction at 10 µM [1]: ≤ 1
Fc1cc(Nc2ncn(-c3cccc(F)c3)n2)cc(N2CCN(C3COC3)CC2)c1 [Compound 594, N-[3-fluoro-5-[4-(oxetan-3-yl)piperazin-1-yl]phenyl]-1-(3-fluorophenyl)-1,2,4-triazol-3-amine] | 1 to 10 | 1 to 10 |  |  | 
CCc1cc(Nc2ncn(-c3cnccn3)n2)cc(N2CCN(C3(C)COC3)CC2)c1 [Compound 489, N-[3-ethyl-5-[4-(3-methyloxetan-3-yl)piperazin-1-yl]phenyl]-1-pyrazin-2-yl-1,2,4-triazol-3-amine] | 10 to 100 | 10 to 100 |  |  | 
Cc1cc(Nc2ncn(-c3cc(F)cc(F)c3)n2)c(C)c(N2CCN(C3COC3)CC2)c1 [Compound 697, 1-(3,5-difluorophenyl)-N-[2,5-dimethyl-3-[4-(oxetan-3-yl)piperazin-1-yl]phenyl]-1,2,4-triazol-3-amine] | 1 to 10 | 10 to 100 |  |  | 
CCc1cc(Nc2ncn(-c3ccc(C)cc3)n2)cc(N2CCN(C3COC3)CC2)c1 [Compound 31, N-[3-ethyl-5-[4-(oxetan-3-yl)piperazin-1-yl]phenyl]-1-(p-tolyl)-1,2,4-triazol-3-amine] |  |  | 100 to 1000 | 100 to 1000 | 
COc1cc(OC)cc(-n2cnc(Nc3cc(C4CC4)nc(N4CCOCC4)c3)n2)c1 [Compound 210, 2-cyclopropyl-N-[1-(3,5-dimethoxyphenyl)-1,2,4-triazol-3-yl]-6-morpholino-pyridin-4-amine] |  |  | ≤ 1 | 100 to 1000 | 
COCC1CCN(c2cc(C)cc(Nc3ncn(-c4ccnc(F)c4)n3)c2)CC1 [Compound 122, 1-(2-fluoro-4-pyridyl)-N-[3-[4-(methoxymethyl)-1-piperidyl]-5-methyl-phenyl]-1,2,4-triazol-3-amine] |  |  | 10 to 100 | 1000 to 10000 | 
COc1cc(Nc2ncn(-c3cccc(C(F)F)c3)n2)cc(N2CCN(C3COC3)CC2)c1 [Compound 693, 1-[3-(difluoromethyl)phenyl]-N-[3-methoxy-5-[4-(oxetan-3-yl)piperazin-1-yl]phenyl]-1,2,4-triazol-3-amine] | 1 to 10 | ≤ 1 |  |  | 
CC(=O)OCC(C)(COC(C)=O)N1CCN(c2cc(C)cc(Nc3ncn(-c4cc(F)cc(F)c4)n3)c2)CC1 [Compound 505, [3-acetoxy-2-[4-[3-[[1-(3,5-difluorophenyl)-1,2,4-triazol-3-yl]amino]-5-methyl-phenyl]piperazin-1-yl]-2-methyl-propyl] acetate] | 10 to 100 | ≤ 1 |  |  | 
Fc1cc(F)cc(-n2cnc(Nc3cc(C(F)(F)F)cc(N4CCN([C@@H]5CCOC5)CC4)n3)n2)c1 (single isomer, unassigned) [Compound 672] | 1 to 10 | 1 to 10 |  |  | 
N#Cc1cc(Nc2ncn(-c3ccccc3)n2)cc(N2CCOCC2)c1 [Compound 608, 3-morpholino-5-[(1-phenyl-1,2,4-triazol-3-yl)amino]benzonitrile] | 10 to 100 | 1 to 10 |  |  | 
[2H]C1([2H])N(c2cc(Nc3ncn(-c4cc(F)cc(F)c4)n3)cc(C(F)F)c2)C([2H])([2H])C([2H])([2H])C([2H])([2H])C1([2H])[2H] [Compound 876, N-[3-(2,2,3,3,4,4,5,5,6,6-decadeuterio-1-piperidyl)-5-(difluoromethyl)phenyl]-1-(3,5-difluorophenyl)-1,2,4-triazol-3-amine] |  |  |  |  | fold induction at 1 µM [1]: 10 to 100; fold induction at 10 µM [1]: 10 to 100
Cc1cc(Nc2ncn(-c3ccc(F)c(F)c3)n2)cc(C2CN(C3COC3)C2)c1 [Compound 301, 1-(3,4-difluorophenyl)-N-[3-methyl-5-[1-(oxetan-3-yl)azetidin-3-yl]phenyl]-1,2,4-triazol-3-amine] |  |  | 1000 to 10000 | 100 to 1000 | 
Cc1cc(Nc2ncn(-c3ccccc3)n2)cc(C2CCN(C3(C)COC3)CC2)c1 [Compound 294, N-[3-methyl-5-[1-(3-methyloxetan-3-yl)-4-piperidyl]phenyl]-1-phenyl-1,2,4-triazol-3-amine] |  |  | 1000 to 10000 | 1000 to 10000 | 
Cc1cc(Nc2ncn(-c3ccc(C(F)(F)F)cc3)n2)cc(N2CCN(C3COC3)CC2)c1 [Compound 191] |  |  | ≤ 1 | 1 to 10 | 
OCc1cc(Nc2ncn(-c3ccc(F)c(F)c3)n2)nc(N2CCN(C3COC3)CC2)c1 [Compound 713, [2-[[1-(3,4-difluorophenyl)-1,2,4-triazol-3-yl]amino]-6-[4-(oxetan-3-yl)piperazin-1-yl]-4-pyridyl]methanol] | 10 to 100 | 10 to 100 |  |  | 
Cc1cc(Nc2ncn(-c3cc(F)cc(F)c3)n2)cc(N2CC(C3CCOC3)C2)c1 (stereo not drawn) [Compound 890, 1-(3,5-difluorophenyl)-N-[3-methyl-5-(3-tetrahydrofuran-3-ylazetidin-1-yl)phenyl]-1,2,4-triazol-3-amine] |  |  |  |  | fold induction at 1 µM [1]: 1 to 10; fold induction at 10 µM [1]: 10 to 100
CN(C)C1CCN(c2cc(F)cc(Nc3ncn(-c4cccc(F)c4)n3)c2)C1 (stereo not drawn) [Compound 109, N-[3-[3-(dimethylamino)pyrrolidin-1-yl]-5-fluoro-phenyl]-1-(3-fluorophenyl)-1,2,4-triazol-3-amine] |  |  | 10 to 100 | ≤ 1 | 
[2H]C([2H])([2H])C([2H])(N1CCN(c2cc(C)cc(Nc3ncn(-c4ccccc4)n3)c2)CC1)C([2H])([2H])[2H] [Compound 1086, N-[3-methyl-5-[4-[1,2,2,2-tetradeuterio-1-(trideuteriomethyl)ethyl]piperazin-1-yl]phenyl]-1-phenyl-1,2,4-triazol-3-amine] |  |  |  |  | fold induction at 1 µM [1]: 10 to 100; fold induction at 10 µM [1]: ≤ 1
Cc1cc(Nc2ncn(-c3ccccc3)n2)cc(C2CCN(CC(F)F)C2)c1 (stereo not drawn) [Compound 273, N-[3-[1-(2,2-difluoroethyl)pyrrolidin-3-yl]-5-methyl-phenyl]-1-phenyl-1,2,4-triazol-3-amine] |  |  | 1000 to 10000 | ≤ 1 | 
Cc1cc(Nc2ncn(-c3cc(F)cc(F)c3)n2)c(F)c(NC2COC2)c1 [Compound 915, N3-[1-(3,5-difluorophenyl)-1,2,4-triazol-3-yl]-2-fluoro-5-methyl-N1-(oxetan-3-yl)benzene-1,3-diamine] |  |  |  |  | fold induction at 1 µM [1]: 1 to 10; fold induction at 10 µM [1]: ≤ 1
Cc1cc(Nc2ncn(-c3cc(F)cc(F)c3)n2)c(F)c(N(C)C2COC2)c1 [Compound 969, N3-[1-(3,5-difluorophenyl)-1,2,4-triazol-3-yl]-2-fluoro-N1,5-dimethyl-N1-(oxetan-3-yl)benzene-1,3-diamine] |  |  |  |  | fold induction at 1 µM [1]: 1 to 10; fold induction at 10 µM [1]: ≤ 1
Cc1cc(Nc2ncn(-c3cncnc3)n2)cc(N2CCN(C3COC3)CC2)c1 [Compound 535, N-[3-methyl-5-[4-(oxetan-3-yl)piperazin-1-yl]phenyl]-1-pyrimidin-5-yl-1,2,4-triazol-3-amine] | 1 to 10 | 1 to 10 |  |  | 
Cc1cc(Nc2ncn(-c3ccccc3)n2)cc(N2CCN(C3CC3)C(=O)C2)c1 [Compound 214, l-cyclopropyl-4-[3-methyl-5-[(1-phenyl-1,2,4-triazol-3-yl)amino]phenyl]piperazin-2-one] |  |  | 10 to 100 | 1000 to 10000 | 
CCOC(=O)CN1CCN(c2cc(C)cc(Nc3ncn(-c4cc(F)cc(F)c4)n3)c2)CC1 [Compound 72, ethyl 2-[4-[3-[[1-(3,5-difluorophenyl)-1,2,4-triazol-3-yl]amino]-5-methyl-phenyl]piperazin-1-yl]acetate] |  |  | 10 to 100 | 1 to 10 | 
CCc1cc(Nc2ncn(-c3cccc(SC)c3)n2)cc(N2CCN(C3COC3)CC2)c1 [Compound 463, N-[3-ethyl-5-[4-(oxetan-3-yl)piperazin-1-yl]phenyl]-1-(3-methylsulfanylphenyl)-1,2,4-triazol-3-amine] | 1 to 10 | ≤ 1 |  |  | 
Cc1cc(Nc2ncn(-c3cc(F)cc(F)c3)n2)cc(C2(F)CCN(C)C2)c1 (stereo not drawn) [Compound 23, 1-(3,5-difluorophenyl)-N-[3-(3-fluoro-1-methyl-pyrrolidin-3-yl)-5-methyl-phenyl]-1,2,4-triazol-3-amine] |  |  | 10 to 100 | 10 to 100 | 
Cc1cc(Nc2ncn(-c3ccccc3)n2)cc(N2CCN(C3(C)COC3)CC2)c1 [Compound 436, N-[3-methyl-5-[4-(3-methyloxetan-3-yl)piperazin-1-yl]phenyl]-1-phenyl-1,2,4-triazol-3-amine] | 1000 to 10000 | 100 to 1000 |  |  | 
[2H]C1(N2CCN(c3cc(C)cc(Nc4ncn(-c5ccccc5)n4)c3)CC2)CCOC1 (stereo not drawn) [Compound 1039, N-[3-[4-(3-deuteriotetrahydrofuran-3-yl)piperazin-1-yl]-5-methyl-phenyl]-1-phenyl-1,2,4-triazol-3-amine] |  |  |  |  | fold induction at 1 µM [1]: 10 to 100; fold induction at 10 µM [1]: ≤ 1
Cc1cc(Nc2ncn(-c3ccccc3)n2)cc(N2CC(C)NCC2C)c1 (stereo not drawn) [Compound 21, N-[3-(2,5-dimethylpiperazin-1-yl)-5-methyl-phenyl]-1-phenyl-1,2,4-triazol-3-amine] |  |  | 10 to 100 | ≤ 1 | 
